Measured values as given in the supplement of paper PMC9013687.

Experiments:
Danio rerio embryo [1] = assay: EC50 Eye size_Decrease; details: exposure time: 2 dpf
Experimental: (§1)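 Zebrafish embryos (UFZ-OBI strain) were exposed from 2 hpf for 48 h (2 dpf) or 96 h (4 dpf) at 28 °C; spontaneous tail coiling was scored at 25 hpf. Morphological features from automated image analysis (FishInspector), heart rate and locomotor response were fitted with drc models. Quantal endpoints were dichotomised at 2.5 SD from controls and fitted with a log-logistic model; heart rate, pigmentation and STC were normalised to the replicate control mean. Betamethasone was tested as betamethasone dipropionate, diflorasone as diflorasone diacetate.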

Danio rerio embryo [2] = assay: EC50 Eye-jaw distance_Decrease; details: exposure time: 4 dpf
Experimental: as §1

Danio rerio embryo [3] = tested on: Danio rerio embryo
Experimental: as §1

Danio rerio embryo [4] = assay: EC10 Pericard size_Increase; higher = less potent; details: exposure time: 2 dpf
Experimental: as §1

Danio rerio embryo [5] = assay: EC10 Yolk sac size_Increase; higher = less potent; details: exposure time: 4 dpf
Experimental: as §1

Danio rerio embryo [6] = assay: EC10 Eye-jaw distance_Decrease; higher = less potent; details: exposure time: 4 dpf
Experimental: as §1

Danio rerio embryo [7] = assay: EC50 Yolk sac size_Increase; details: exposure time: 4 dpf
Experimental: as §1

Danio rerio embryo [8] = assay: EC20 Yolk sac size_Increase; higher = less potent; details: exposure time: 4 dpf
Experimental: as §1

Danio rerio embryo [9] = assay: EC20 Eye size_Decrease; higher = less potent; details: exposure time: 2 dpf
Experimental: as §1

Danio rerio embryo [10] = assay: EC10 Body length_Decrease; higher = less potent
Experimental: as §1

Danio rerio embryo [11] = assay: EC50 Curvature_Increase; details: exposure time: 2 dpf
Experimental: as §1

Danio rerio embryo [12] = assay: EC10 Eye size_Decrease; higher = less potent; details: exposure time: 2 dpf
Experimental: as §1

Danio rerio embryo [13] = assay: EC10 Bladder size_Decrease; higher = less potent; details: exposure time: 4 dpf
Experimental: as §1

Danio rerio embryo [14] = assay: EC50 Bladder size_Decrease; details: exposure time: 4 dpf
Experimental: as §1

Danio rerio embryo [15] = assay: spontaneous tail coiling frequency (coils/min/embryo); higher = more spontaneous movement; details: 25 hpf
Experimental: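 Spontaneous tail coilings of zebrafish embryos exposed from 2 hpf were recorded at 24-25 hpf in 1-min videos and detected by a KNIME workflow from grey-value variance. Betamethasone was tested as the dipropionate, diflorasone as the diacetate.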

Danio rerio embryo [16] = assay: EC10 Curvature_Increase; higher = less potent; details: exposure time: 2 dpf
Experimental: as §1

Danio rerio embryo [17] = assay: EC10 Lack of SB; higher = less potent; details: exposure time: 4 dpf
Experimental: as §1

Danio rerio embryo [18] = assay: EC20 Any effect; higher = less potent
Experimental: as §1

Danio rerio embryo [19] = details: exposure time: 4 dpf
Experimental: as §1

Danio rerio embryo [20] = assay: EC50 Body length_Decrease
Experimental: as §1

Danio rerio embryo [21] = assay: EC20 Bladder size_Decrease; higher = less potent; details: exposure time: 4 dpf
Experimental: as §1

Danio rerio embryo [22] = tested on: Danio rerio embryo; remark: listed apart in the source
Experimental: as §1

Danio rerio embryo [23] = assay: EC10 Pigmentation increase; higher = less potent; details: exposure time: 4 dpf
Experimental: as §1

Danio rerio embryo [24] = assay: EC20 Curvature_Increase; higher = less potent; details: exposure time: 2 dpf
Experimental: as §1

Danio rerio embryo [25] = assay: EC20 LMR dark; higher = less potent; details: exposure time: 4 dpf
Experimental: as §1

Danio rerio embryo [26] = assay: EC10 LMR dark; higher = less potent; details: exposure time: 4 dpf
Experimental: as §1

Danio rerio embryo [27] = assay: EC20 Pigmentation increase; higher = less potent; details: exposure time: 4 dpf
Experimental: as §1

Danio rerio embryo [28] = assay: EC10 Any effect; higher = less potent
Experimental: as §1

Danio rerio embryo [29] = assay: EC20 Pericard size_Increase; higher = less potent; details: exposure time: 2 dpf
Experimental: as §1

Danio rerio embryo [30] = assay: EC20 Heart rate; higher = less potent
Experimental: as §1

Danio rerio embryo [31] = assay: EC20 Eye-jaw distance_Decrease; higher = less potent; details: exposure time: 4 dpf
Experimental: as §1

Danio rerio embryo [32] = assay: EC10 Heart rate; higher = less potent
Experimental: as §1

Danio rerio embryo [33] = assay: EC50 Pericard size_Increase; details: exposure time: 2 dpf
Experimental: as §1

Danio rerio embryo [34] = assay: EC20 Lack of SB; higher = less potent; details: exposure time: 4 dpf
Experimental: as §1

Danio rerio embryo [35] = details: exposure time: 4 dpf; remark: listed apart in the source
Experimental: as §1

Danio rerio embryo [36] = assay: EC20 Body length_Decrease; higher = less potent
Experimental: as §1

CC1(C)OC(=O)C(OCC2CC2)=C1c1ccc(S(C)(=O)=O)cc1 [Firocoxib]
Details	EC10 Bladder size Decrease [µM]	EC10 Curvature Increase [µM]	EC10 Eye size Decrease [µM]	EC10 Eye-jaw distance Decrease [µM]	EC10 LMR dark [µM]	EC10 Lack of SB [µM]	EC10 Pericard size Increase [µM]	EC10 Pigmentation increase [µM]	EC10 Yolk sac size Increase [µM]	EC20 Bladder size Decrease [µM]	EC20 Curvature Increase [µM]	EC20 Eye size Decrease [µM]	EC20 Eye-jaw distance Decrease [µM]	EC20 LMR dark [µM]	EC20 Lack of SB [µM]	EC20 Pericard size Increase [µM]	EC20 Pigmentation increase [µM]	EC20 Yolk sac size Increase [µM]	EC50 Bladder size Decrease [µM]	EC50 Curvature Increase [µM]	EC50 Eye size Decrease [µM]	EC50 Eye-jaw distance Decrease [µM]	EC50 LMR dark [µM]	EC50 Lack of SB [µM]	EC50 Pericard size Increase [µM]	EC50 Yolk sac size Increase [µM]
Danio rerio embryo [1]	–	–	–	–	–	–	–	–	–	–	–	–	–	–	–	–	–	–	–	–	128	–	–	–	–	–
Danio rerio embryo [2]	–	–	–	–	–	–	–	–	–	–	–	–	–	–	–	–	–	–	–	–	–	123	–	–	–	–
Danio rerio embryo [4]	–	–	–	–	–	–	40.6	–	–	–	–	–	–	–	–	–	–	–	–	–	–	–	–	–	–	–
Danio rerio embryo [5]	–	–	–	–	–	–	–	–	48.1	–	–	–	–	–	–	–	–	–	–	–	–	–	–	–	–	–
Danio rerio embryo [6]	–	–	–	79.2	–	–	–	–	–	–	–	–	–	–	–	–	–	–	–	–	–	–	–	–	–	–
Danio rerio embryo [7]	–	–	–	–	–	–	–	–	–	–	–	–	–	–	–	–	–	–	–	–	–	–	–	–	–	128
Danio rerio embryo [8]	–	–	–	–	–	–	–	–	–	–	–	–	–	–	–	–	–	68.9	–	–	–	–	–	–	–	–
Danio rerio embryo [9]	–	–	–	–	–	–	–	–	–	–	–	93.3	–	–	–	–	–	–	–	–	–	–	–	–	–	–
Danio rerio embryo [11]	–	–	–	–	–	–	–	–	–	–	–	–	–	–	–	–	–	–	–	109	–	–	–	–	–	–
Danio rerio embryo [12]	–	–	77.4	–	–	–	–	–	–	–	–	–	–	–	–	–	–	–	–	–	–	–	–	–	–	–
Danio rerio embryo [13]	31.5	–	–	–	–	–	–	–	–	–	–	–	–	–	–	–	–	–	–	–	–	–	–	–	–	–
Danio rerio embryo [14]	–	–	–	–	–	–	–	–	–	–	–	–	–	–	–	–	–	–	56.3	–	–	–	–	–	–	–
Danio rerio embryo [16]	–	74.2	–	–	–	–	–	–	–	–	–	–	–	–	–	–	–	–	–	–	–	–	–	–	–	–
Danio rerio embryo [17]	–	–	–	–	–	34.7	–	–	–	–	–	–	–	–	–	–	–	–	–	–	–	–	–	–	–	–
Danio rerio embryo [19]	–	–	–	–	–	–	–	–	–	–	–	–	–	–	–	–	–	–	–	–	–	–	–	64.6	–	–
Danio rerio embryo [21]	–	–	–	–	–	–	–	–	–	39	–	–	–	–	–	–	–	–	–	–	–	–	–	–	–	–
Danio rerio embryo [23]	–	–	–	–	–	–	–	83	–	–	–	–	–	–	–	–	–	–	–	–	–	–	–	–	–	–
Danio rerio embryo [24]	–	–	–	–	–	–	–	–	–	–	85.4	–	–	–	–	–	–	–	–	–	–	–	–	–	–	–
Danio rerio embryo [25]	–	–	–	–	–	–	–	–	–	–	–	–	–	22.9	–	–	–	–	–	–	–	–	–	–	–	–
Danio rerio embryo [26]	–	–	–	–	13.9	–	–	–	–	–	–	–	–	–	–	–	–	–	–	–	–	–	–	–	–	–
Danio rerio embryo [27]	–	–	–	–	–	–	–	–	–	–	–	–	–	–	–	–	100	–	–	–	–	–	–	–	–	–
Danio rerio embryo [29]	–	–	–	–	–	–	–	–	–	–	–	–	–	–	–	58.3	–	–	–	–	–	–	–	–	–	–
Danio rerio embryo [31]	–	–	–	–	–	–	–	–	–	–	–	–	93.2	–	–	–	–	–	–	–	–	–	–	–	–	–
Danio rerio embryo [33]	–	–	–	–	–	–	–	–	–	–	–	–	–	–	–	–	–	–	–	–	–	–	–	–	108	–
Danio rerio embryo [34]	–	–	–	–	–	–	–	–	–	–	–	–	–	–	43.7	–	–	–	–	–	–	–	–	–	–	–
Danio rerio embryo [35]	–	–	–	–	–	–	–	–	–	–	–	–	–	–	–	–	–	–	–	–	–	–	53.7	–	–	–

Details	EC10 Any effect [µM]	EC10 Body length Decrease [µM]	EC10 Heart rate [µM]	EC20 Any effect [µM]	EC20 Body length Decrease [µM]	EC20 Heart rate [µM]	EC50 Any effect [µM]	EC50 Body length Decrease [µM]	EC50 Heart rate [µM]	spontaneous tail coiling frequency
Danio rerio embryo [3], exposure time: 2 dpf	–	–	–	–	–	–	–	–	181	–
Danio rerio embryo [3], exposure time: 4 dpf	–	–	–	–	–	–	–	–	56.2	–
Danio rerio embryo [10], exposure time: 2 dpf	–	70.3	–	–	–	–	–	–	–	–
Danio rerio embryo [10], exposure time: 4 dpf	–	85	–	–	–	–	–	–	–	–
Danio rerio embryo [15], 14.9 µM	–	–	–	–	–	–	–	–	–	2.83
Danio rerio embryo [15], 29.7 µM	–	–	–	–	–	–	–	–	–	2.54
Danio rerio embryo [15], 59.4 µM	–	–	–	–	–	–	–	–	–	3.5
Danio rerio embryo [15], 59.5 µM	–	–	–	–	–	–	–	–	–	2.46
Danio rerio embryo [15], 89.2 µM	–	–	–	–	–	–	–	–	–	2.31
Danio rerio embryo [15], 104 µM	–	–	–	–	–	–	–	–	–	3
Danio rerio embryo [15], 133.8 µM	–	–	–	–	–	–	–	–	–	3.06
Danio rerio embryo [18], exposure time: 2 dpf	–	–	–	73.7	–	–	–	–	–	–
Danio rerio embryo [18], exposure time: 4 dpf	–	–	–	85.4	–	–	–	–	–	–
Danio rerio embryo [20], exposure time: 2 dpf	–	–	–	–	–	–	–	109	–	–
Danio rerio embryo [20], exposure time: 4 dpf	–	–	–	–	–	–	–	113	–	–
Danio rerio embryo [22], exposure time: 2 dpf	–	–	–	–	–	–	121	–	–	–
Danio rerio embryo [22], exposure time: 4 dpf	–	–	–	–	–	–	147	–	–	–
Danio rerio embryo [28], exposure time: 2 dpf	55.3	–	–	–	–	–	–	–	–	–
Danio rerio embryo [28], exposure time: 4 dpf	62.1	–	–	–	–	–	–	–	–	–
Danio rerio embryo [30], exposure time: 2 dpf	–	–	–	–	–	113	–	–	–	–
Danio rerio embryo [30], exposure time: 4 dpf	–	–	–	–	–	38.8	–	–	–	–
Danio rerio embryo [32], exposure time: 2 dpf	–	–	86.2	–	–	–	–	–	–	–
Danio rerio embryo [32], exposure time: 4 dpf	–	–	31.2	–	–	–	–	–	–	–
Danio rerio embryo [36], exposure time: 2 dpf	–	–	–	–	82.7	–	–	–	–	–
Danio rerio embryo [36], exposure time: 4 dpf	–	–	–	–	94.5	–	–	–	–	–

COc1ccc(Cl)cc1C(=O)NCCc1ccc(S(=O)(=O)NC(=O)NC2CCCCC2)cc1 [Glibenclamide]
Danio rerio embryo [15]
Details	spontaneous tail coiling frequency
3.16 µM	1.79
3.2 µM	0.98
6.3 µM	1.48
6.33 µM	1.79
12.65 µM	0.8
12.7 µM	1.41
25.3 µM	1.69
50.6 µM	1.97
50.61 µM	1.66
